Entries after “also recorded” stand apart in the source; their conditions may differ.
Assays:
P. falciparum apicoplast = test: Immunofluorescence assay of apicoplast biogenesis on treated blood-stage parasites; assay type: cell-based, Plasmodium falciparum; conditions: 48 h, 0.2 µM
Procedure: To determine the impact of (3i) on apicoplast biogenesis, parasites were treated for 48 h with 0.2 µM of (3i) or 0.2 µM of (2i) (a control of (3i) for which the active CCl3 was replaced by a methyl CH3 group) and compared to untreated parasites by immunofluorescence assay. […] In order to determine if the apicoplast is the main target of (3i), we performed a growth assay over three life cycles to assess a potential delayed death effect, one of the major signature for compounds affecting apicoplast. […] The second interpretation could be that, unlike chloramphenicol or doxycycline, which cause a delayed death phenotype on Plasmodium, (3i) could act like fosmidomycin or actinonin and cause a rapid death phenotype.
Plasmodium falciparum blood stage parasites were maintained at 2% hematocrit in 1640 RPMI-HEPES, supplemented with 5% AlbuMAX II (GIBCO) and 0.25% gentamycin. Parasites were grown sealed Perspex chambers gassed with beta mix gas (1% O2, 5% CO2 and 94% N2) at 37 °C and maintained on 48-h cycles. Cultures were tightly synchronized at ring stage using sorbitol treatment (5% v/v) as previously described.
Prior to the treatment, parasites were synchronized using 5% sorbitol. After 48 h treatment ([…] or DMSO) parasites were fixed using 4% paraformaldehyde (PFA) and 0.0075% glutaraldehyde for 30 min at room temperature. […]

[1] = tested on: primary human hepatocytes; test: Hepatotoxicity by count of DAPI-stained hepatocyte nuclei; assay type: cell-based; conditions: dose range up to 30 µM
Procedure: Finally, we studied the hepatotoxicity of (3i). This was carried out by quantification of DAPI-stained hepatocyte nuclei in culture wells. Generally, if a drug is hepatotoxic, it causes death and detachment of hepatocytes leading to less hepatocyte nuclei counts.
(§1) Upon immunostaining of parasites, the study plates were scanned using a CellInsight high-content screening platform equipped with the Studio HCS software (Thermo Fisher Scientific, Waltham, MA, USA). The details of analysis is provided elsewhere. The number of host hepatocyte nuclei per well was counted by the system as a measure of toxicity of 3i towards the liver cells.

[2] = tested on: P. falciparum (NF135 strain) hepatic exoerythrocytic forms; test: Liver stage development in infected primary human hepatocytes; assay type: cell-based, Plasmodium falciparum
Procedure: The effect of (3i) on the hepatic stage of P. falciparum was next studied in order to know if (3i) was active against another stage of P. falciparum cycle. Cryopreserved primary human hepatocytes were infected with 30,000 freshly extracted P. falciparum sporozoites and simultaneously treated with a dose range (0.9–30 µM) of (3i). Atovaquone (ATQ) was used as a positive parasite-killing control at 25 nM.
P. falciparum (NF135 strain) sporozoites were isolated by dissection of the salivary glands of infected A. stephensi 14–21 days after an infective blood meal (Department of medical microbiology, University Medical Centre, St Radboud, Nijmegen Netherland). All infected salivary glands were removed by hand dissection, crushed in a potter for sporozoites isolation, and filtrated through a 40 μm filter to remove mosquito debris (Cell Strainer, BD BioSciences, Franklin Lakes, NJ, USA). The sporozoites were counted using a disposable Glasstic microscope slide (KOVA, Garden Grove, CA, USA).
One day before hepatocyte thawing, 96-well plates were coated by a Corning®® collagen solution (50 µg/mL rat tail type I collagen in 0.02N acid acetic) over night at room temperature. The next day, the wells were washed twice by PBS solution. Cryopreserved primary human hepatocytes (LONZA, Basel, Swiss) were seeded in 96-well plates with a pre-determined seeding dose that gave a single dense layer of attached hepatocytes. Four days post-seeding, each plate well was infected with 30,000 freshly extracted Plasmodium falciparum sporozoites. […]
Hepatocyte cultures were fixed with 4% paraformaldehyde solution (PFA, Invitrogen) for 10 min. […] Images were analyzed and prepared with ImageJ software. Apicoplast morphology was observed and quantified by eye under a confocal microscope.
as §1, with “The details of analysis is provided elsewhere.” left out, “cells. […]” for “cells.”

O=[N+]([O-])c1ccc(Oc2nc3ccccc3nc2C(Cl)(Cl)Cl)cc1 [3i, 2-(4-Nitrophenoxy)-3-trichloromethylquinoxaline]
Effect on apicoplast biogenesis (immunofluorescence) (P. falciparum apicoplast): effect on the apicoplast biogenesis; also recorded: doted single non-elongated apicoplast at the mid-trophozoite life stage
Cytotoxicity on human hepatocytes (hepatocyte nuclei counts) [1]: no cytotoxicity on human hepatocytes; also recorded: no cytotoxicity was observed
Effect on exoerythrocytic forms (EEF or schizont) size and numbers ([2]; 3i 0.9-30 µM, ATQ 25 nM, 6 or 12 days post-infection): not observe a significant effect on parasite growth; also recorded: no effect
Effect on the apicoplast in the hepatic stage ([2]; up to 30 µM, day 6 post-infection): quite not affected

Reference: PMC8400257, “2-Phenoxy-3-Trichloromethylquinoxalines Are Antiplasmodial Derivatives with Activity against the Apicoplast of Plasmodium falciparum” (Pharmaceuticals, 2021)
